Test results taken from patent US20170035845A1, “Compositions and Methods for Inhibiting Pro-Inflammatory Cytokine Gene Expression” (The Regents of the University of California, priority 2015, published 2017).

Key:
[1] = test system: THP-1 macrophages; assay: Cytokine secretion ELISA, LPS-stimulated differentiated THP-1 cells; assay type: cell-based, human; settings: for release of TNF-α by LPS-stimulated THP-1 cells / secretion of IL-1β by LPS-stimulated THP-1 cells: comparison RTD-1 versus marimastat
Description: (§1) THP-1 monocytes (ATCC, Manassas, Va.) were cultured in RPMI 1640+10% FBS and penicillin/streptomycin (P/S). THP-1 Dual cells (Invivogen, San Diego, Calif.) which express the NF-κB reporter, secreted embryonic alkaline phosphatase (SEAP), were grown in RPMI 1640+10% HI-FBS and antibiotics. THP-1 cell differentiation was induced by treatment of cells (˜3.3×10^5 cells/ml) with 100 nM PMA and cultured for 2 days. HEK-Blue™ hTLR9 cells (Invivogen) were grown in DMEM medium containing 10% HI-FBS, P/S and normocin. Cells were cultured at 37° C. in 5% CO2. Cytokine assays. PMA-differentiated THP-1 cells (˜8×10^5 cells) cultured in 6-well plates were washed twice with complete medium and grown in fresh medium containing 1% FBS for 24 hours. Cells were washed twice with fresh medium and incubated for 2 hours prior to further manipulation. Cells were stimulated with 100 ng/ml LPS in the presence or absence of 10 μg/ml RTD-1 or vehicle (0.01% acetic acid) for 2 hours. In some experiments, cells were first incubated for 1 hour with 10 μg/ml of marimastat or vehicle (DMSO), after which LPS and/or RTD-1 were added and incubated for 2 hours as above. Peripheral blood CD14+ monocytes (Lonza, Walkersville, Md.) were thawed, rinsed with RPMI 1640 containing 10% HI FBS, P/S and normocin and then resuspended in RPMI 1640 containing 1% HI FBS plus antibiotics as above (10^6 cells/nil) for 2 hours. The cells were then stimulated for 4 hours as described in the legend. Medium was collected, clarified by centrifugation first at 250×g for 8 minutes and then at 5000×g for 5 minutes. TNF-α, IL-1β and IL-8 were quantified by ELISA (Life Technologies, Carlsbad, Calif.).

[2] = test system: primary human monocytes; assay: Cytokine secretion ELISA, LPS-stimulated primary human monocytes; assay type: cell-based; settings: LPS 20 ng/ml, 4 hours, RTD-1 10 μg/ml
Description: as §1

[3] = test system: THP-1 cells; assay: Real time quantitative PCR of cytokine mRNA, LPS-stimulated THP-1 cells; assay type: cell-based, human
Description: Differentiated THP-1 cells were treated with LPS and RTD-1 for 2 hours as above, washed with PBS and RNA was isolated using an RNA mini kit (Zymo Research, Irvine, Calif.) or with RNeasy mini kit (Qiagen, Valencia, Calif.). RNA integrity was confirmed on agarose gels and RNA samples with A260/280 and A260/230 ratios ≧1.7 were used to generate cDNA. Briefly, 400 ng RNA was incubated with genomic DNA (gDNA) elimination (GE) buffer for 5 minutes at […]. and reverse transcribed using the RT^2 first strand synthesis kit (Qiagen). Custom PCR arrays (SA Biosciences, Frederick, Md.) containing human genes of interest and controls (for reverse transcriptase and PCR efficiency, RTC and PPC respectively) were used for simultaneous real time PCR analysis. Master mix containing cDNA and RT^2 SYBR Green™ was added to array wells. PCR cycling parameters were: 1 cycle 10 minutes at 95° C., 40 cycles of 15 seconds at 95° C., 1 minute at 60° C. on a BioRad C1000 Thermal Cycler equipped with a CFX96 real time system. Melting curve analysis confirmed a single amplicon with CT PPC=20±2 and ACT (RTC-PPC)<5 for all samples. The ACTB gene was used for normalization of gene expression and fold stimulation (compared to untreated cells) was calculated using the ΔΔCT method. Absence of gDNA in cDNA samples (CT>35) was confirmed using a human gDNA primer (SA Biosciences).

[4] = test system: NF-κB; assay: NF-κB activity assay (SEAP reporter, Quantiblue) in THP-1 Dual cells; assay type: cell-based, human; settings: for LPS-stimulated NF-κB activation: comparison RTD-1 versus marimastat, RTD-1 in the presence or absence of marimastat
Description: (§2) One ml aliquots of PMA-differentiated THP-1 Dual cells (3.3×10^5 cells/nil) in 24 well tissue culture plates were starved for 1 day in complete medium with 1% HI FBS as described above. For experiments with S7 peptide, 0.5 ml cultures in 48 well plates were used. Fresh medium containing 1% HI FBS was added to the cells and after 2 hours cells were stimulated with 100 ng/ml LPS or 25 ng/ml Pam3CSK4 in the presence of RTD-1 or 0.01% acetic acid (HOAc, vehicle). In some experiments cells were pre-incubated with marimastat, Ly294002 or vehicle for 1 hour prior to addition of LPS and/or RTD-1 (SEQ ID NO. 1). Following overnight incubation, medium was clarified by centrifugation and SEAP activity was determined using Quantiblue reagent at 37° C. and measurement of absorbance at 625 nm. To test the effect of RTD-1 on TLR9-dependent NF-κB activation, 2×10^5 HEK-Blue™ hTLR9 cells/ml were cultured for 1 day in 24 well plates and stimulated overnight with ODN2006 with or without RTD-1. Medium was harvested and SEAP activity was assayed using Quantiblue™ as above. NF-κB activation was defined as fold stimulation of SEAP activity with respect to control cells.

[5] = test system: TLR9-dependent NF-κB activation; assay: TLR9-dependent NF-κB activation (SEAP) in HEK-Blue hTLR9 cells; assay type: cell-based, human; settings: ODN2006, RTD-1 10 μg/ml
Description: as §2

[6] = test system: NF-κB p65; assay: NF-κB DNA-binding activity (p65 ELISA) in THP-1 nuclear extracts; assay type: cell-based, human
Description: Nuclear extracts were prepared (nuclear extraction kit; Cayman Chemical Co., Ann Arbor, Mich.) from differentiated THP-1 cells treated for 30 minutes with vehicle, LPS (100 ng/ml) or TNF-α (2 ng/ml) in the presence or absence of 10 μg/ml RTD-1 (SEQ ID NO. 1). NF-κB DNA binding was quantified by p65 ELISA (Cayman Chemical Co.). Non-specific DNA-binding, positive control extract and positive control extract treated with competitor DNA control included with the ELISA were used to confirm specificity of DNA-binding.

[7] = test system: THP-1 cells; assay: Immunoblot analyses of THP-1 cell extracts; assay type: cell-based, human
Description: (§3) Differentiated THP-1 cells (˜8×10^5 cells/2.5 ml medium) were starved in complete medium containing […] for 1 day as above, and fresh 2.5 ml RPMI 1640+1% FBS+P/S was added for 2 hours. For experiments with fresh monocytes, cells (>80% CD14+) were resuspended (˜10^6 cells/nil) in monocyte attachment medium (Promocell, Heidelberg, Germany) in wells of a 12 well plate for 2 hours at 37° C. in 5% CO2. The cells were then washed two times with RPMI medium containing 1% HI FBS and suspended overnight in RPMI medium containing 1% HI FBS. Cells were stimulated with agonists with or without RTD-1 (SEQ ID NO. 1) as described in the figure legends after which cells were washed with PBS and extracts were prepared in cell lysis buffer+1 mM PMSF. Protein content was determined using the BCA method (BioRad, San Diego, Calif.) and extracts resolved on SDS-tricine gels and transferred to nitrocellulose membrane. The membranes were probed with the indicated antibodies and developed using anti-mouse or anti-rabbit HRP conjugated secondary antibodies and detected by chemiluminescence. A phosphoprotein antibody array (Phospho-MAPK™; R&D systems Minneapolis, Minn.) was used to analyze activation of phosphoprotein kinases. Differentiated THP-1 cells (1.6×10^6 cells) were treated with 100 ng/ml LPS, 10 μg/ml RTD-1 (SEQ ID NO. 1), 100 ng/ml LPS+10 μg/ml RTD-1, or vehicle for 30 minutes. Arrays were probed with 200 μg of cell extract protein and chemiluminescence of spots from arrays or bands from western blotting was quantified using NIH ImageJ software, background subtracted, normalized and plotted.

[8] = test system: THP-1 cells; assay: Phospho-MAPK phosphoprotein antibody array, THP-1 cells; assay type: cell-based, human
Description: as §3

[9] = test system: primary human monocytes; assay: Immunoblot analyses of primary human monocyte extracts; assay type: cell-based
Description: EDTA-anticoagulated blood was incubated with human monocyte enrichment cocktail (Stem Cell Technologies, Vancouver, BC, Canada) for 20 minutes and layered on Ficoll Paque™ in a Sepmate™ 50 tube (Stem Cell Tech). The cells were centrifuged at 1200×g for 10 minutes and the monocyte containing layer of cells was isolated, washed with PBS containing 2% HI FBS and 1 mM EDTA.
as §3

[10] = test system: peripheral blood leukocytes; assay: Cytokine secretion by peripheral blood leukocytes stimulated with TLR agonists; assay type: cell-based, human; settings: stimulated by agonists of TLRs 2, 4, 5, and 8
[11] = test system: whole blood; assay: TNF-α secretion by E. coli stimulated whole blood; assay type: cell-based
[12] = Binding to LPS
[13] = test system: peripheral blood leukocytes; settings: human peripheral blood leukocytes, diverse TLR agonists (Schaal et al 2012); cited from earlier work
[14] = test system: inflammatory cytokines; settings: mouse models; cited from earlier work
[15] = LPS 100 ng/ml, 2 hours, RTD-1 10 μg/ml, THP-1 macrophages
[16] = LPS 100 ng/ml, RTD-1 10 μg/ml, 2 hours
[17] = LPS 100 ng/ml, RTD-1 10 μg/ml, 30 minutes
[18] = LPS 100 ng/ml + RTD-1 10 μg/ml, 30 minutes

Compound: RTD-1: rhesus theta-defensin 1, macrocyclic tri-disulfide θ-defensin peptide, SEQ ID NO. 1, synthetic (cyclo(GFCRCLCRRGVCRCICTR); disulfide (positions not given here); not fully specified (bridges); also: three disulfides, places not given here; listed as Macaca mulatta)
- suppression of secretion of IL-1β [1, 15]: > 90%
- suppression of secretion of IL-8 [1, 15]: > 90%
- suppression of secretion of TNF-α [1, 15]: > 90%
- release of TNF-α by LPS-stimulated THP-1 cells ([1]; LPS 100 ng/ml): blocked both cytokines effectively
- secretion of IL-1β by LPS-stimulated THP-1 cells ([1]; LPS 100 ng/ml): blocked both cytokines effectively
- effect on THP-1 cytokine secretion ([1]; RTD-1 alone, no LPS): no effect
- suppression of secretion of IL-1β [2]: > 90%
- suppression of secretion of IL-8 [2]: > 90%
- suppression of secretion of TNF-α [2]: > 90%
- LPS-induced mRNA expression of CCL3 [3, 16]: markedly inhibited
- LPS-induced mRNA expression of CCL4 [3, 16]: markedly inhibited
- LPS-induced mRNA expression of IL-1β [3, 16]: markedly inhibited
- LPS-induced mRNA expression of IL-8 [3, 16]: markedly inhibited
- LPS-induced mRNA expression of TNF-α [3, 16]: markedly inhibited
- expression of GAPDH ([3]; addition of RTD-1): no effect
- cytokine mRNA expression ([3]; peptide alone, no LPS): no effect
- dose dependence of inhibition of NF-κB activation ([4]; LPS 100 ng/ml, RTD-1 5 and 10 μg/ml): dose dependent
- LPS-stimulated NF-κB activation ([4]; LPS 100 ng/ml): potent inhibitor
- suppression of LPS-induced NF-κB activation ([4]; LPS 100 ng/ml, simultaneous RTD-1 10 μg/ml, THP-1 Dual cells): ~70%
- direct effect on the enzymatic activity of the SEAP reporter ([4]; LPS/RTD-1 control): no direct effect
- inhibition of Pam3CSK4-induced NF-κB activity ([4]; Pam3CSK4 25 ng/ml, RTD-1 10 μg/ml): ~70%
- effect on NF-κB activation ([4]; RTD-1 alone, no LPS): no effect
- suppression of ODN2006-mediated NF-κB activation [5]: to baseline levels
- NF-κB DNA binding, LPS-stimulated [6, 17]: to baseline levels
- translocation of NF-κB p65 to the nucleus ([6]; LPS stimulated macrophages, Western blot of nuclear extracts): inhibit translocation
- suppression of TNF-α-stimulated NF-κB DNA binding ([6]; TNF-α 2 ng/ml, RTD-1 10 μg/ml, 30 minutes, compared with TNF-α alone): ~35%
- JNK1/2 kinase phosphorylation ([7]; LPS 100 ng/ml, RTD-1 10 μg/ml): inhibition
- degradation of IκBα in LPS stimulated macrophages ([7]; LPS 100 ng/ml, RTD-1 10 μg/ml): effective in blocking
- p38 MAP kinase phosphorylation ([7]; LPS 100 ng/ml, RTD-1 10 μg/ml): inhibition
- P-Akt levels remained elevated ([7]; RTD-1 10 μg/ml alone, for at least 4 hours): ~2.5 fold
- increase in P-Akt ([7]; RTD-1 10 μg/ml alone, within 10 minutes of peptide treatment): 6.5 fold
- IκBα levels and phosphorylation of p38 MAP and JNK1/2 kinases ([7]; RTD-1 alone): no effect
- LPS-induced phosphorylation of CREB [8, 18]: to baseline levels
- LPS-induced phosphorylation of ERK2 [8, 18]: to baseline levels
- LPS-induced phosphorylation of H5P27 [8, 18]: to baseline levels
- LPS-induced phosphorylation of JNK2 [8, 18]: to baseline levels
- LPS-induced phosphorylation of p38α [8, 18]: to baseline levels
- LPS-induced phosphorylation of p38γ [8, 18]: to baseline levels
- phosphorylation of CREB, ERK2, H5P27, JNK2, p38α and p38γ ([8]; RTD-1 alone): did not suppress
- phosphorylation of Akt1 ([8]; RTD-1 alone or in combination with LPS): selectively stimulated
- baseline phosphorylation of other kinase targets ([8]; RTD-1 alone, otherwise untreated cells): did not increase
- degradation of IκBα in LPS stimulated monocytes [9, 17]: reduced
- p38 MAP kinase phosphorylation in LPS stimulated monocytes [9, 17]: inhibited
- degradation of IκBα ([9]; RTD-1 alone, monocytes): did not induce
- phosphorylation of Akt ([9]; monocytes treated with LPS and RTD-1 or RTD-1 alone, compared to control cells): increased phosphorylation
- p38 MAP kinase phosphorylation ([9]; peptide alone, monocytes): no effect
- secretion of several inflammatory cytokines [10]: suppressed secretion
- speed of blockade of TNF-α secretion [11]: extremely rapid
- binding to LPS [12]: binds inefficiently
- inhibition of cytokine secretion [13]: potent inhibitor
- inflammatory cytokines, including TNF-α, IL-1β and several chemokines [14]: reduce inflammatory cytokines

Compound: HNP-1: human neutrophil α-defensin HNP-1 purified from neutrophils [reference compound]
- inhibition of NF-κB activity ([4]; LPS 100 ng/ml, equimolar concentrations used in place of RTD-1): no inhibition

Compound: CNC(=O)[C@@H](NC(=O)[C@H](CC(C)C)[C@H](O)C(=O)NO)C(C)(C)C [marimastat, reference compound]
- release of TNF-α by LPS-stimulated THP-1 cells ([1]; LPS 100 ng/ml): efficiently blocked
- secretion of IL-1β by LPS-stimulated THP-1 cells ([1]; LPS 100 ng/ml): did not affect
- LPS-stimulated NF-κB activation ([4]; LPS 100 ng/ml): no effect
